Source: patent publication US20170216219A1, “THERAPEUTIC NANOPARTICLES FOR ACCUMULATION IN THE BRAIN” (UNIVERSITY OF GEORGIA RESEARCH FOUNDATION, INC., priority 2014, published 2017)

Legend:
Format in all cases: cell-based, Human
LPS stimulated NSCs = assay: Anti-inflammatory properties in LPS stimulated NSCs (cytokine ELISA); conditions: LPS 100 ng/mL 36 h, 1 μM
Source text: Immunosuppressant corticoid based rugs such as prednisone can exert biphasic effects on neuronal mitochondrial dynamics. A low level of prednisone and chronic high levels can attenuate various aspects of mitochondrial function. […] Inflammatory cytokines like TNF-α and IL-6 are closely linked to TBI and these cytokines have a negative effect on damaged tissue. Therefore limiting inflammatory cytokine activity is of major benefit in reducing TBI tissue damage. We used lipopolysaccharide (LPS) to stimulate TNF-α and IL-6 production in NSCs to understand the anti-inflammatory effects of prednisone-NPs and CoQ10-NPs in an in vitro model (FIG. 6C). […] The T and NT NPs containing prednisone reduced the levels of IL-6 in the LPS stimulated NSCs. The addition of T or NT-CoQ10-NPs to prednisone NPs increased the efficiency of IL-6 reduction. […] IL-10 is primarily an anti-inflammatory cytokine with potent inhibitory effects on several pro-inflammatory mediators. […] IL-12 has immune-inflammatory responses in the brain; however the consequences of local production of IL-12 on spontaneous immune responses are unknown. […] The exact mechanism why only mitochondria targeted therapy produces IL-12 from the NSCs warrants further investigation.
Human induced pluripotent stem cell-derived neural stem cells (HIP™ hNSC BC1, GlobalStem®, Rockville, Md.) used for the in vitro portion of this study. NSCs were maintained on matrigel-coated tissue culture dishes in neural stem cell media composed of neural basal medium, 2% B-27 supplement, 1% non-essential amino acids, 2 mM L-alanine/L-glutamine, 1% penicillin/streptomycin, and 20 ng/mL bFGF. The media was changed every other day. When NSCs reached confluence (approximately every 4 to 5 days), cells were enzymatically passaged using Accutase and removed from the dish using a cell scrapper. Cells were split at a 1:4 ratio. […]
NSCs were plated on each well of a 12-well plate at a density of […] per well and allowed to grow overnight (NSC basal media in 200 μL). […] The absorbance was recorded at 450 nm using a BioTek Synergy HT well plate reader.

NSCs [1] = assay: Antioxidative properties by Seahorse analyzer (OCR) in H2O2 treated NSCs; conditions: H2O2 10 μM, 1 μM with respect to CoQ10
Source text: Oxidative stress induced by the production of ROS including free radicals and peroxides is one of the major mechanisms, which leads to neuronal destruction and is closely related to apoptosis and necrosis in these cells during TBI. Mitochondria are well known to be a major source of ROS production. CoQ10 is endogenously synthesized in mammalian mitochondria, acts as both antioxidant and pro-oxidant, and is involved in shuttling electrons from complexes I or II and a number of other electron donors, including electron transfer factor, which moves electrons from fatty acid beta oxidation. CoQ10 is found in all cell and organelle membranes, where it can participate in redox shuttling. However, defects in CoQ10 biosynthesis can be found during TBI. […]
T-CoQ10-NPs, NT-CoQ10-NPs, and free CoQ10 were tested for their ability to reduce oxidative stress in NSCs. […] The cells were monitored for changes in oxygen consumption rate (OCR) with respect to time. A basal reading was acquired for 45 min and then H2O2(10 μM) was injected. The OCR was monitored for 90 min and T-CoQ10-NPs (1 μM with respect to CoQ10), NT-CoQ10-NPs (1 μM with respect to CoQ10), and free CoQ10 (1 μM) were injected. The OCR levels were then further measured for 4.5 h. As a control, cells were also monitored with no treatment or only treatment of H2O2(10 μM).

NSCs [2] = assay: Cytotoxicity by MTT assay against NSCs; conditions: concentrations used in the cytokine studies
Protocol: Human induced pluripotent stem cell-derived neural stem cells (HIP™ hNSC BC1, GlobalStem®, Rockville, Md.) used for the in vitro portion of this study. NSCs were maintained on matrigel-coated tissue culture dishes in neural stem cell media composed of neural basal medium, 2% B-27 supplement, 1% non-essential amino acids, 2 mM L-alanine/L-glutamine, 1% penicillin/streptomycin, and 20 ng/mL bFGF. The media was changed every other day. When NSCs reached confluence (approximately every 4 to 5 days), cells were enzymatically passaged using Accutase and removed from the dish using a cell scrapper. Cells were split at a 1:4 ratio. To prepare NSCs for MTT and ROS Reduction assays, NSCs were plated in matrigel-coated 96-well dishes at a ratio of 40,000 cells per well in neural stem cell media.
The cytotoxic behavior of all the NPs was evaluated by using the MTT assay against NSCs. Cells (40,000 cells/well) were seeded on a 96-well plate in 100 μL of NSC basal complete medium and incubated for 24 h. The cells were treated with NPs at varying concentrations (with respect to prednisone and CoQ10) and incubated at 37° C. […] The medium was removed, the cells were lysed with 100 μL of DMSO, and the absorbance of the purple formazan was recorded at 550 nm using a Bio-Tek Synergy HT microplate reader. Each well was performed in triplicate and a background reading was recorded at 800 nm.

COC1=C(OC)C(=O)C(C/C=C(\C)CC/C=C(\C)CC/C=C(\C)CC/C=C(\C)CC/C=C(\C)CC/C=C(\C)CC/C=C(\C)CC/C=C(\C)CC/C=C(\C)CCC=C(C)C)=C(C)C1=O [CoQ10, coenzyme Q10]
IL-10 (LPS stimulated NSCs): elevated | effect on H2O2 mediated oxidative stress (OCR) (NSCs [1]): less efficiency in oxidative stress reduction | cytotoxic effects (MTT) (NSCs [2]): did not show any cytotoxic effects

C[C@]12C=CC(=O)C=C1CC[C@@H]1[C@@H]2C(=O)C[C@@]2(C)[C@H]1CC[C@]2(O)C(=O)CO [prednisone]
IL-10 (LPS stimulated NSCs): elevated | TNF-α secretion induced by LPS (LPS stimulated NSCs): significantly reduced | cytotoxic effects (MTT) (NSCs [2]): did not show any cytotoxic effects
